Laboratory results published in patent publication US11242365B2, “FOXM1-derived peptide, and vaccine including same” (OncoTherapy Science, Inc., priority 2015, dated 2022).
“Also recorded” adds a separate entry of the source.

Legend:
[1] = test system: target cells (C1R-A01) pulsed with peptide; assay: IFN-gamma ELISA of CTL clones established by limiting dilution (HLA-A*01:01); format: cell-based, human; conditions: CTL clone against peptide-pulsed C1R-A01; listed as FOXM1-A01-10-566
Description: After induction of CTLs in vitro, the CTLs were seeded onto 96-well round-bottomed microplates (Nalge Nunc International) at 1 cell/well or 10 cells/well. The CTLs were cultured with two types of Mitomycin C-treated human B lymphoblastoid cell lines (1×10^4 cells/well each) in a total of 150 micro-l/well 5% ABS/AIM-V medium with an anti-CD3 antibody (final concentration: 30 ng/ml) and IL-2 (final concentration: 125 IU/ml). Ten days later, 50 micro-l 5% ABS/AIM-V medium containing 500 IU/ml IL-2 was added to the culture.
(§1) Peptide-pulsed C1R-A01 (1×10^4 cells/well) was prepared as the target cell. The IFN-gamma ELISPOT assay and IFN-gamma ELISA were performed according to the assay kit manufacturer's manual.

[2] = test system: target cells (C1R-A01) pulsed with peptide; assay: IFN-gamma ELISA of CTL lines (HLA-A*01:01); format: cell-based, human; conditions: CTL line against peptide-pulsed C1R-A01; listed as FOXM1-A01-10-566
Description: CTLs were propagated using methods similar to those reported by Riddell et al. (Walter E A et al., N Engl J Med 1995, 333(16): 1038-44; Riddell S R et al., Nat Med 1996, 2(2): 216-23). The CTLs were cultured in 25 ml 5% ABS/AIM-V medium together with two types of Mitomycin C-treated human B lymphoblastoid cell lines (5×10^6 cells/25 ml medium each) and an anti-CD3 antibody (final concentration: 40 ng/ml). On the day after beginning of the culturing, IL-2 (final concentration: 120 IU/ml) was added to the culture. On days 5, 8 and 11, the medium was changed to a 5% ABS/AIM-V medium containing IL-2 (final concentration: 30 IU/ml) (Tanaka H et al., Br J Cancer 2001, 84(1): 94-9; Umano Y et al., Br J Cancer 2001, 84(8): 1052-7; Uchida N et al., Clin Cancer Res 2004, 10(24): 8577-86; Suda T et al., Cancer Sci 2006, 97(5): 411-9; Watanabe T et al., Cancer Sci 2005, 96(8): 498-506).
as §1

[3] = test system: COS7 cells expressing FOXM1 and HLA-A*01:01; assay: IFN-gamma production of CTL clone against target cells expressing FOXM1 and HLA-A*01:01; format: cell-based, African green monkey
Source text: A cDNA encoding the FOXM1 or HLA-A*01:01 gene was amplified by PCR. The PCR-amplified product was each incorporated into an expression vector. Either or both of the FOXM1 gene-expressing vector and the HLA-A*01:01 gene-expressing vector were introduced into COS7 cells, which is a cell line negative for HLA, using Lipofectamine 2000 (Invitrogen). On the day after gene introduction, COS7 cells were detached and harvested using versene (Invitrogen), and used as the target cell for confirmation of IFN-gamma production (5×10^4 cells/well).
IFN-gamma production of the FOXM1-A01-10-566 (SEQ ID NO: 56)-specific CTL clone against target cells expressing FOXM1 and HLA-A*01:01 was investigated. COS7 cells expressing both FOXM1 and HLA-A*01:01 were prepared as the target cell. COS7 cells expressing either one of FOXM1 and HLA-A*01:01 were prepared as the negative control cell. […] This clearly proves that FOXM1-A01-10-566 (SEQ ID NO: 56) is a peptide generated by antigen processing, and is presented on the cell surface with the HLA-A*01:01 molecule and recognized by CTLs.

SSDPASOLSY (SSDPASQLSY; a peptide derived from FOXM1) [SEQ ID NO: 56]
peptide-specific IFN-gamma production of CTL clone (ELISA) [1]: showed a peptide-specific IFN-gamma production | IFN-gamma production by the CTL line (ELISA) [2]: observed; also recorded: CTL line that produce IFN-gamma in a peptide-specific manner was established | IFN-gamma production of peptide-specific CTL clone ([3]; COS7 cells expressing both FOXM1 and HLA-A*01:01): showed IFN-gamma production | IFN-gamma production of peptide-specific CTL clone ([3]; negative control: COS7 cells expressing either one of FOXM1 and HLA-A*01:01, listed as FOXM1-A01-10-566): a significant IFN-gamma production was not observed; also recorded: a significant IFN-gamma production was not shown
